Source: ChEMBL document CHEMBL5126553, “Dentithecamides A-H, Diacylated Zoanthoxanthin Derivatives with PAX3-FOXO1 Inhibitory Activity from the Hydroid Dentitheca habereri” (J Nat Prod, 2022)
pIC50: −log10 of the molar value. Blank lines part the entries; values can stand above or below the compound they belong to. Activity calls are given as the source filed them. No cut-off for these calls is given here.

Key:
Rh4 = assay: Upregulation of TNF gene expression in human Rh4 cells; type: functional, cell-based
PAX3/FOXO1 = PAX3/FOXO1 (Homo sapiens, UniProt P23760+Q12778); assay: Inhibition of PAX3-FOXO1 driven transcriptional activity in human Rh4 cells transfected with ALK-Luc construct incubated for 24 hrs by luciferase assay; type: cell-based
PAX3/FOXO1, sequence (Q12778 whole entry): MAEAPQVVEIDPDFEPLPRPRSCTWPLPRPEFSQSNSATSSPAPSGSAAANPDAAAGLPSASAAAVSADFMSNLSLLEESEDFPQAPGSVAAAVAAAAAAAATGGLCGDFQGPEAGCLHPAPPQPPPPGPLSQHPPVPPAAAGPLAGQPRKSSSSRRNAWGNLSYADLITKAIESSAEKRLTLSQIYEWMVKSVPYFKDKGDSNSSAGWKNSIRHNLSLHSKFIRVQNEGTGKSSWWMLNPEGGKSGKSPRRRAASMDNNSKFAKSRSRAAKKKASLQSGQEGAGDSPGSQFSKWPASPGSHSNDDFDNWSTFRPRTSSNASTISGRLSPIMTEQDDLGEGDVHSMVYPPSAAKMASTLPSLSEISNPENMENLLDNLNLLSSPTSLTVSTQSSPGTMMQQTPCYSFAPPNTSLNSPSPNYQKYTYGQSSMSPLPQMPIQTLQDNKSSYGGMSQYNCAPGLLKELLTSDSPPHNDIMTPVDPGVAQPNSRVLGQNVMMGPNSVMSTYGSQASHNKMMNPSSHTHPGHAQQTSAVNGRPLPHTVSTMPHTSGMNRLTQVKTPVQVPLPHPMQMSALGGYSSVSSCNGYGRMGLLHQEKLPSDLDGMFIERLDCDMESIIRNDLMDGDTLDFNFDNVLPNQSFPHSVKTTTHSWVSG
PAX3/FOXO1, sequence (P23760 whole entry): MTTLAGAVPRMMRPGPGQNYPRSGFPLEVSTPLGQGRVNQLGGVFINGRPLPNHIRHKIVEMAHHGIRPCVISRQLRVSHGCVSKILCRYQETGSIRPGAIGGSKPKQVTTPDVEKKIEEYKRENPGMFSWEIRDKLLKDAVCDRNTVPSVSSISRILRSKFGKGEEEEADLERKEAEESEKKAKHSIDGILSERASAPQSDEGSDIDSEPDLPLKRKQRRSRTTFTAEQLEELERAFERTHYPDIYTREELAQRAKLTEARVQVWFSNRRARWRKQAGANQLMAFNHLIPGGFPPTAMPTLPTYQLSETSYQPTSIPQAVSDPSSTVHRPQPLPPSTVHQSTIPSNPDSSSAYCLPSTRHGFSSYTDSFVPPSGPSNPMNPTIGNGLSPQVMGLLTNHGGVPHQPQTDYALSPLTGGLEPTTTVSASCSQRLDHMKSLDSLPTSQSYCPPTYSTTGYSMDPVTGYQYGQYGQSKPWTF

[1] = Cytotoxicity against human Rh4 cells transfected with CMV-Luc construct assessed as inhibition of cell growth at 100 uM by luciferase assay; type: toxicity, cell-based; conditions: rh4, 100 µM
[2] = molecular target: T1, PAX3/FOXO1 (Homo sapiens) (UniProt Q12778+P23760); assay: Inhibition of PAX3-FOXO1 driven transcriptional activity in human Rh4 cells assessed as upregulation of TNFRSF12A gene expression at 20 uM incubated for 6 hrs by GSEA analysis; type: cell-based
T1 sequence (P23760 whole entry, looked up): as the sequence (P23760 whole entry) above
T1 sequence (Q12778 whole entry, looked up): as the sequence (Q12778 whole entry) above

[3] = molecular target: T1, PAX3/FOXO1 (Homo sapiens); assay: Inhibition of PAX3-FOXO1 driven transcriptional activity in human Rh4 cells assessed as upregulation of EPHA2 gene expression at 20 uM incubated for 6 hrs by GSEA analysis; type: cell-based
[4] = molecular target: T1, PAX3/FOXO1 (Homo sapiens); assay: Inhibition of PAX3-FOXO1 driven transcriptional activity in human Rh4 cells assessed as upregulation of DGKD gene expression at 20 uM incubated for 6 hrs by GSEA analysis; type: cell-based
[5] = molecular target: T1, PAX3/FOXO1 (Homo sapiens); assay: Inhibition of PAX3-FOXO1 driven transcriptional activity in human Rh4 cells assessed as upregulation of KIT gene expression at 20 uM incubated for 6 hrs by GSEA analysis; type: cell-based
[6] = molecular target: T1, PAX3/FOXO1 (Homo sapiens); assay: Inhibition of PAX3-FOXO1 driven transcriptional activity in human Rh4 cells assessed as upregulation of BCL2L1 gene expression at 20 uM incubated for 6 hrs by GSEA analysis; type: cell-based
[7] = molecular target: T1, PAX3/FOXO1 (Homo sapiens); assay: Inhibition of PAX3-FOXO1 driven transcriptional activity in human Rh4 cells assessed as upregulation of TIMP3 gene expression at 20 uM incubated for 6 hrs by GSEA analysis; type: cell-based
[8] = molecular target: T1, PAX3/FOXO1 (Homo sapiens); assay: Inhibition of PAX3-FOXO1 driven transcriptional activity in human Rh4 cells assessed as upregulation of VEGFA gene expression at 20 uM incubated for 6 hrs by GSEA analysis; type: cell-based
[9] = molecular target: T1, PAX3/FOXO1 (Homo sapiens); assay: Inhibition of PAX3-FOXO1 driven transcriptional activity in human Rh4 cells assessed as upregulation of KLF10 gene expression at 20 uM incubated for 6 hrs by GSEA analysis; type: cell-based
[10] = molecular target: T1, PAX3/FOXO1 (Homo sapiens); assay: Inhibition of PAX3-FOXO1 driven transcriptional activity in human Rh4 cells assessed as upregulation of GADD45B gene expression at 20 uM incubated for 6 hrs by GSEA analysis; type: cell-based
[11] = molecular target: T1, PAX3/FOXO1 (Homo sapiens); assay: Inhibition of PAX3-FOXO1 driven transcriptional activity in human Rh4 cells assessed as upregulation of IL-11 gene expression at 20 uM incubated for 6 hrs by GSEA analysis; type: cell-based
[12] = molecular target: T1, PAX3/FOXO1 (Homo sapiens); assay: Inhibition of PAX3-FOXO1 driven transcriptional activity in human Rh4 cells assessed as upregulation of SOX9 gene expression at 20 uM incubated for 6 hrs by GSEA analysis; type: cell-based
[13] = molecular target: T1, PAX3/FOXO1 (Homo sapiens); assay: Inhibition of PAX3-FOXO1 driven transcriptional activity in human Rh4 cells assessed as upregulation of SERPINE1 gene expression at 20 uM incubated for 6 hrs by GSEA analysis; type: cell-based
[14] = molecular target: T1, PAX3/FOXO1 (Homo sapiens); assay: Inhibition of PAX3-FOXO1 driven transcriptional activity in human Rh4 cells assessed as upregulation of LBH gene expression at 20 uM incubated for 6 hrs by GSEA analysis; type: cell-based
[15] = molecular target: T1, PAX3/FOXO1 (Homo sapiens); assay: Inhibition of PAX3-FOXO1 driven transcriptional activity in human Rh4 cells assessed as upregulation of ID1 gene expression at 20 uM incubated for 6 hrs by GSEA analysis; type: cell-based

Compound: CC1c2[nH]c(NC(=O)c3ccccc3)nc2CCc2nc(NC(=O)c3ccccc3)[nH]c21
Activity (Rh4): Active | pIC50 (PAX3/FOXO1): 4.89 | Activity [1]: Toxic

Compound: CC[C@H](C)C(=O)Nc1nc2c([nH]1)C(C)c1[nH]c(NC(=O)/C=C/c3ccccc3)nc1CC2 (stereo partly specified)
pIC50 (PAX3/FOXO1): 4.38 | Activity [1]: Toxic

Continued, in another order:

inhibition [2]: Active | inhibition [3]: Active | inhibition [4]: Active | inhibition [5]: Active | inhibition [6]: Active | inhibition [7]: Active | inhibition [8]: Active | pIC50 (PAX3/FOXO1): 4.77 | inhibition [9]: Active | inhibition [10]: Active | inhibition [11]: Active | inhibition [12]: Active | inhibition [13]: Active | inhibition [14]: Active | inhibition [15]: Active
Compound: CC(C)=CC(=O)Nc1nc2c([nH]1)C(C)c1[nH]c(NC(=O)c3ccccc3)nc1CC2 (stereo unspecified)
Activity (Rh4): Active | Activity [1]: Toxic

pIC50 (PAX3/FOXO1): 4.59
Compound: CC[C@H](C)C(=O)Nc1nc2c([nH]1)C(C)c1[nH]c(NC(=O)c3ccccc3)nc1CC2 (stereo partly specified)
Activity [1]: Toxic

pIC50 (PAX3/FOXO1): 4.17
Compound: CC(C)C(=O)Nc1nc2c([nH]1)C(C)c1[nH]c(NC(=O)c3ccccc3)nc1CC2 (stereo unspecified)
Activity [1]: Toxic
